{
  "source": "patent US20030050305A1",
  "about": "“Thromboxane inhibitors, compositions and methods of use” (priority 2000, published 2003)",
  "key": {"[1]": {"test_system": "Human corpus cavernosum tissue", "test": "Relaxation of human corpus cavernosum tissue strips contracted with phenylephrine (organ chamber)", "conditions": "for Relative potency in relaxing human corpus cavernosum tissue (FIG. 1B): after treatment with 0.02 μM SQ 29548; for Relaxation response in tissue from diabetic compared to non-diabetic patients (FIG. 4A, 4B): increasing concentrations of the prostaglandin alone", "procedure": "(§1) Human corpus cavernosum specimens were obtained from impotent men at the time of penile prosthesis insertion. Tissues were maintained at 4-6° C. in M-400 solution, pH 7.4 (composition per 100 ml: mannitol, 4.19 g; KH2PO4, 0.205 g; K2HPO4.3H2O, 0.97 g; KCl, 0.112 g; NaHCO3, 0.084 g) until used. Corpus cavernosum tissues were typically used between 2 and 16 hours from extraction.\n(§2) Measurement of the relaxation of corpus cavemosal tissue was carried out as follows. Corpus cavernosal tissue strips (3×3×7 mm) were immersed in a 8 ml organ chamber containing physiological salt solution, maintained at 37° C. and aerated with 5% CO2/95% air, pH 7.4. The tissues were then contracted with phenylephrine (1 μM) and the relaxation response was evaluated after the cumulative addition of the compound to the organ chamber.\n(§3) In experiments where the effect of the thromboxane A2 receptor antagonist, SQ 29548 , was measured, […] was added 20 minutes before the addition of phenylephrine. In experiments where the effect of the thromboxane A2 agonist, U 46619 was measured, U 46619 was added after the phenylephrine-induced contractions stabilized, and then prostaglandin PGE1 was added 10 minutes later, if required.\nThe data are expressed as mean i standard error of the percentage of total relaxation induced by 100 μM papaverine hydrochloride. Statistical analysis were conducted using a two-factor ANOVA statistical analysis using StatView software for Apple computers."}, "[2]": {"test_system": "Human corpus cavernosum tissue", "test": "Contractile response of human corpus cavernosum tissue from diabetic and non-diabetic patients to U 46619", "conditions": "tissue from diabetic vs non-diabetic patients; P<0.01", "procedure": "as §1, §2, §3\nThe tissues were prepared according to Example 1. […]"}, "[3]": {"test_system": "Human corpus cavernosum resistance arteries (helicine arteries)", "test": "Relaxation of human corpus cavernosum resistance arteries contracted with norepinephrine (myograph)", "conditions": "SQ 29548 0.02 μM; increasing concentrations of acetylcholine; contracted with 1 μM norepinephrine; P<0.01", "procedure": "Human corpus cavernosum tissues were prepared according to Example 1. Penile small arteries, helicine arteries (lumen diameter 150-400 μ), which are the terminal branches of deep penile arteries, were dissected by carefully removing the adhering trabecular tissue. Arterial ring segments (2 mm long) were subsequently mounted on two 40 μm wires on microvascular double Halpern-Mulvany myographs (J. P. Trading, Aarhus, Denmark) for isometric tension recordings.\nMeasurement of the relaxation of corpus cavernosal resistant arteries was carried out as follows. […]\nThe segments were then exposed to 125 mM K^+ (physiological salt solution potassium salt form, by the equimolar substitution of […] in physiological salt solution) and the contraction response was measured. The arteries were contracted with 1 μM norepinephrine and relaxation responses were evaluated by cumulative additions of the acetylcholine (1 nM to 3 μ) to the organ chamber. The segments were washed with fress physiological salt solution, treated with the thromboxane inhibitor SQ 29548 (0.02 μM) and the response to acetylcholine measured again."}, "[4]": {"conditions": "contracted with 1 μM phenylephrine"}},
  "data": [
    {"compound": "CCCCC[C@H](O)/C=C/[C@@H]1[C@@H](C/C=C\\CCCC(=O)O)[C@H]2CO[C@@H]1C2", "note": "[U 46619]", "values": [
      {"measurement": "Effect of the thromboxane A2 receptor agonist on the relaxation induced by PGE1 (FIG. 3)", "setting": "[1]; U 46619 0.003 μM, increasing concentrations of prostaglandin, P<0.01", "value": "significant contraction of the tissue"},
      {"measurement": "Contraction response induced by increasing concentrations of the thromboxane agonist (FIG. 6)", "setting": "[2]", "value": "significant contraction of the tissue obtained from diabetic patients"}
    ]},
    {"compound": "CCCCC[C@H](O)/C=C/[C@H]1[C@H](O)CC(=O)[C@@H]1CCCCCCC(=O)O", "note": "[PGE1, alprostadil]", "values": [
      {"measurement": "Relative potency in relaxing human corpus cavernosum tissue (FIG. 1B)", "setting": "[1]; [4]", "value": "equipotent"},
      {"measurement": "Relaxation response in tissue from diabetic compared to non-diabetic patients (FIG. 4A, 4B)", "setting": "[1]; [4]", "value": "no difference in the relaxation response"}
    ]},
    {"compound": "CCCCC[C@H](O)CC[C@H]1[C@H](O)CC(=O)[C@@H]1CCCCCCC(=O)O", "note": "[PGE0]", "values": [
      {"measurement": "Relative potency in relaxing human corpus cavernosum tissue (FIG. 1B)", "setting": "[1]; [4]", "value": "equipotent"},
      {"measurement": "Response of the tissue to increasing concentrations of the prostaglandin alone (FIG. 1A)", "setting": "[1]; higher concentrations of PGE0, absence of SQ 29548, contracted with 1 μM phenylephrine", "value": "significant contraction of the tissue"},
      {"measurement": "Relaxation response in tissue from hypertensive compared to non-hypertensive patients (FIG. 7)", "setting": "[1]; increasing concentrations of PGE0, contracted with 1 μM phenylephrine, P<0.01", "value": "significant reduction in the relaxation of the tissue from hypertensive patients"},
      {"measurement": "Relaxation response in tissue from diabetic compared to non-diabetic patients (FIG. 4A, 4B)", "setting": "[1]; [4]", "value": "significant reduction in the relaxation of the tissue from diabetic patients"}
    ]},
    {"compound": "O=C(O)CCC/C=C\\C[C@@H]1[C@H](CNNC(=O)Nc2ccccc2)[C@H]2CC[C@@H]1O2", "note": "[SQ 29548]", "values": [
      {"measurement": "Effect of the thromboxane A2 receptor antagonist on the relaxation induced by acetylcholine (FIG. 8)", "setting": "[3]", "value": "significant relaxation of the tissue"},
      {"measurement": "Effect of the thromboxane A2 receptor antagonist on the relaxation induced by PGE0 (FIG. 2)", "setting": "[1]; SQ 29548 0.02 μM, added 20 minutes before phenylephrine, increasing concentrations of PGE0, P<0.01", "value": "significant relaxation of the tissue"},
      {"measurement": "Effect on the reduced relaxation to PGE0 of tissue from diabetic patients (FIG. 5)", "setting": "[1]; addition of 0.02 μM SQ 29548, diabetic vs non-diabetic tissue", "value": "This reduction in the relaxation of the tissue was eliminated"}
    ]}
  ]
}
